Results: US12275731B2, “Azaindole inhibitors of wild-type and mutant forms of LRRK2” (DANA-FARBER CANCER INSTITUTE, INC., priority 2018, dated 2025)

How the values were obtained:
Assay in all cases: KinomeScan profiling
Assay type in all cases: binding
[1] = molecular target: T1, BMPR1B (Homo sapiens, UniProt O00238); settings: read-out: % control
T1 construct: purchased KinomeScan®
Summary of the method: (§1)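 Compounds were screened at 1 μM in DMSO across a 468-kinase KinomeScan panel. Binding was expressed as % control, scaled between a positive control (0%) and DMSO (100%) using luminescence signal. A value under 35% counted as active.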

[2] = molecular target: MARK1 (Homo sapiens, UniProt Q9P0L2); settings: MARK1, 1 μM; read-out: % control
Summary of the method: as §1

[3] = molecular target: NEK6 (Homo sapiens, UniProt Q9HC98); settings: NEK6, 1 μM; read-out: % control
Summary of the method: as §1

[4] = molecular target: T2, MLCK (Homo sapiens, UniProt Q32MK0); settings: read-out: % control
T2 sequence (Q32MK0 1-819): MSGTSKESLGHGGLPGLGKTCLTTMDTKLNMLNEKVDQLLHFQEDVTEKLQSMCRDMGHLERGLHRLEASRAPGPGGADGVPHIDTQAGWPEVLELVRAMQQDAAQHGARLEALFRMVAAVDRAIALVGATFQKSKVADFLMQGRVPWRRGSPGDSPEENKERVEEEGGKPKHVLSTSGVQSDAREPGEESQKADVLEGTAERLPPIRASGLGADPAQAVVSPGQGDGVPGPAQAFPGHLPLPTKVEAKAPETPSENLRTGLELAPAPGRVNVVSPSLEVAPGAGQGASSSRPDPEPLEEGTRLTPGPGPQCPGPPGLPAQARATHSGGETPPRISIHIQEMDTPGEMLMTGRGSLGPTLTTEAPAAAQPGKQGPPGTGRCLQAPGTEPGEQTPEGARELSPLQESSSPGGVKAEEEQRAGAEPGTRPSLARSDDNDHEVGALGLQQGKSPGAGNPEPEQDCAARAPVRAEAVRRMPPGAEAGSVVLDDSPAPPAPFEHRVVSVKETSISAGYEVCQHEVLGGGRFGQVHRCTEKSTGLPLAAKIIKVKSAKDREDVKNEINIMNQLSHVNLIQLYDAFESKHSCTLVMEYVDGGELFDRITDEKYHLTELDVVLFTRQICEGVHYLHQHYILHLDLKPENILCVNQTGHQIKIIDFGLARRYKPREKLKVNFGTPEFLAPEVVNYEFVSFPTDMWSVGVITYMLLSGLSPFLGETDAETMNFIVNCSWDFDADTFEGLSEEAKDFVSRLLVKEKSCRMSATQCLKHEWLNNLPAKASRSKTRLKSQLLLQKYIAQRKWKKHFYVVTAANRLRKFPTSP
Summary of the method: as §1

[5] = molecular target: PRKCD (Homo sapiens, UniProt Q05655); settings: read-out: % control
Summary of the method: as §1

[6] = molecular target: T3, NEK11 (Homo sapiens, UniProt Q8NG66); settings: NEK11, 1 μM; read-out: % control
T3 sequence (Q8NG66 1-645): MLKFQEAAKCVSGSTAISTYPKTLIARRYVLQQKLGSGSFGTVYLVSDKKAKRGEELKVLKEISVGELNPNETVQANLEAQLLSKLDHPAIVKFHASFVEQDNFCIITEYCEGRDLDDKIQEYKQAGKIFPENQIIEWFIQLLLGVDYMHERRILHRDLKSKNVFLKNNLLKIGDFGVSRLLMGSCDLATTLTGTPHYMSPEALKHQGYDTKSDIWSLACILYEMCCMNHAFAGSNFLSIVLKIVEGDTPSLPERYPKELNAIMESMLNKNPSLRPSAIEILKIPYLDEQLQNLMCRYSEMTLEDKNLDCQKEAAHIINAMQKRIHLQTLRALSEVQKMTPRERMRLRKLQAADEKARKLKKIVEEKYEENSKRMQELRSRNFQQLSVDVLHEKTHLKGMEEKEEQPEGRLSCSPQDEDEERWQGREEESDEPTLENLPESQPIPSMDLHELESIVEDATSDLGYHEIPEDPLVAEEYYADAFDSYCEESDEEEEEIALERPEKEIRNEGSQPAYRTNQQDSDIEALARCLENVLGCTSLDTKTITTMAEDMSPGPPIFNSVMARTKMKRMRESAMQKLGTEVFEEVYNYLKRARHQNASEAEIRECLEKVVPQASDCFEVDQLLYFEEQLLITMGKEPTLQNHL
Summary of the method: as §1

[7] = molecular target: MRCKB (Homo sapiens, UniProt Q9Y5S2); settings: read-out: % control
Summary of the method: as §1

[8] = molecular target: CHEK2 (Homo sapiens, UniProt O96017); settings: CHEK2, 1 μM; read-out: % control
Summary of the method: as §1

[9] = molecular target: T4, BRSK2 (Homo sapiens, UniProt Q8IWQ3); settings: BRSK2, 1 μM; read-out: % control
T4 sequence (Q8IWQ3 1-736): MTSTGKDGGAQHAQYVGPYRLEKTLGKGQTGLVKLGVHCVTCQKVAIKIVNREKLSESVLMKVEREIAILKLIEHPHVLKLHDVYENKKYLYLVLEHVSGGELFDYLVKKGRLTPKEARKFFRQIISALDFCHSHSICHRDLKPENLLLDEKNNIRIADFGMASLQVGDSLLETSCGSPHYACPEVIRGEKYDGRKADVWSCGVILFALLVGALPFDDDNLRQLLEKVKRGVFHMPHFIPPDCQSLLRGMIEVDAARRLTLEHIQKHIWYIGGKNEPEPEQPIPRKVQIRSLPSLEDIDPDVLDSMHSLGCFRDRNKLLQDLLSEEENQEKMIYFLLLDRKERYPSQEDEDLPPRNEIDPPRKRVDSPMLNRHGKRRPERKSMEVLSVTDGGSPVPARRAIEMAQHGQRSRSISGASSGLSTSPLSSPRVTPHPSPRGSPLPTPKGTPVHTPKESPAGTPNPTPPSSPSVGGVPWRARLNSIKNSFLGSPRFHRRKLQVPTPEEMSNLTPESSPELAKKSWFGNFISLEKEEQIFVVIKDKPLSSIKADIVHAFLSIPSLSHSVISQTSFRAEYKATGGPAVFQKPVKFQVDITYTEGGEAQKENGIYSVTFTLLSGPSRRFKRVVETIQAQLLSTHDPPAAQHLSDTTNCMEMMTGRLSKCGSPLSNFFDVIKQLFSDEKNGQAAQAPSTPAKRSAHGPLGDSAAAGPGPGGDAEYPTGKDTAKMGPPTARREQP
Summary of the method: as §1

Chain of PRKCD (Q05655 whole entry): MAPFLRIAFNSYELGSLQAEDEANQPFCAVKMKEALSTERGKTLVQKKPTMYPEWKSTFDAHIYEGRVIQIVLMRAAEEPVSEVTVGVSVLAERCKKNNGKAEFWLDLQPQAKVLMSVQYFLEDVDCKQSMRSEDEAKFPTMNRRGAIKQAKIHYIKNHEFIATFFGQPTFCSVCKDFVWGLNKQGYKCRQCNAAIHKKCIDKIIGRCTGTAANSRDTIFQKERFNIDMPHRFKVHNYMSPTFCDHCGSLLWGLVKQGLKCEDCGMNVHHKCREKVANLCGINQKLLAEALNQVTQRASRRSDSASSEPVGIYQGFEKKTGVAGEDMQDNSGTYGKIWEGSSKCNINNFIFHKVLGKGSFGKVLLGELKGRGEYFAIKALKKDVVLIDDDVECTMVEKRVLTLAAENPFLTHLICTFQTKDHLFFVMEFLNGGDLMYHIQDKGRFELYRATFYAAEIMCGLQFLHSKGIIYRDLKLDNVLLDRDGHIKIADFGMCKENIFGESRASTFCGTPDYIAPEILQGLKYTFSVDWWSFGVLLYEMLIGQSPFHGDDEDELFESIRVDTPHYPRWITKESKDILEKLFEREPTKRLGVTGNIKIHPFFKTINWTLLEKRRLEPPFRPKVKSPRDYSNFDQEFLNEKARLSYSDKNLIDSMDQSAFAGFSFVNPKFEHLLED
Chain of MARK1 (Q9P0L2 whole entry): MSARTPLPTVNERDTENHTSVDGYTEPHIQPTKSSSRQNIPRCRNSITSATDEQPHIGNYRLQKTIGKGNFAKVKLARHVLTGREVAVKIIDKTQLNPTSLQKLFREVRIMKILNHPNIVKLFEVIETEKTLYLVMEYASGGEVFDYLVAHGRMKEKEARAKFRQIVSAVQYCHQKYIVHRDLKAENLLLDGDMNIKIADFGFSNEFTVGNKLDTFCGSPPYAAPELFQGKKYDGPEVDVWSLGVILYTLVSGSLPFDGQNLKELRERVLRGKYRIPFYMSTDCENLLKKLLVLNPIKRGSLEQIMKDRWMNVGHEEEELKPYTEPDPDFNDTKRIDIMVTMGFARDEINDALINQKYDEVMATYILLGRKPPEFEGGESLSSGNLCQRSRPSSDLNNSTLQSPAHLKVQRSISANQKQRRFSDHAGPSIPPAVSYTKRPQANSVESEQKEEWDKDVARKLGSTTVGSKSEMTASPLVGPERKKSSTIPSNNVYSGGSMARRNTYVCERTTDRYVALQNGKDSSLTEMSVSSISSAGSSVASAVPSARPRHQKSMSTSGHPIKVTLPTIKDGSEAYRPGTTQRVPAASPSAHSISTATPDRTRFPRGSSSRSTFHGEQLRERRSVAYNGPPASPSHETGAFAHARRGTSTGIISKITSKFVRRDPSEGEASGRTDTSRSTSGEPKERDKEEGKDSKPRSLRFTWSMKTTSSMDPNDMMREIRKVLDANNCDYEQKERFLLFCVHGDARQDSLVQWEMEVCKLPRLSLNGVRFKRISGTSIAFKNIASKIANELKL
Chain of CHEK2 (O96017 whole entry): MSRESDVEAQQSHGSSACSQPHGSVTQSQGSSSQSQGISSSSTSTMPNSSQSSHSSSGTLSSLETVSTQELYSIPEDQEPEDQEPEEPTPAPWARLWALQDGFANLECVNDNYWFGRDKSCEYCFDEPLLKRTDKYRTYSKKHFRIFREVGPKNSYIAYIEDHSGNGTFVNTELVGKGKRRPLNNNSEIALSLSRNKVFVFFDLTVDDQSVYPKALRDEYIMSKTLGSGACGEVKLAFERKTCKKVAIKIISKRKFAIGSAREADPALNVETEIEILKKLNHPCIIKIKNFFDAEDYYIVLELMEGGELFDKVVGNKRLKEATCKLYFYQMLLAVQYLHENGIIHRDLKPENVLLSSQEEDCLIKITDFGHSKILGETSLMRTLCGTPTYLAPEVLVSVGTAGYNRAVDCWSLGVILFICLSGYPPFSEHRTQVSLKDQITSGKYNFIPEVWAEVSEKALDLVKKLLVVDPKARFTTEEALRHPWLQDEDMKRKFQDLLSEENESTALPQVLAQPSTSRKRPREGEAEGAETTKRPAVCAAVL
Chain of MRCKB (Q9Y5S2 whole entry): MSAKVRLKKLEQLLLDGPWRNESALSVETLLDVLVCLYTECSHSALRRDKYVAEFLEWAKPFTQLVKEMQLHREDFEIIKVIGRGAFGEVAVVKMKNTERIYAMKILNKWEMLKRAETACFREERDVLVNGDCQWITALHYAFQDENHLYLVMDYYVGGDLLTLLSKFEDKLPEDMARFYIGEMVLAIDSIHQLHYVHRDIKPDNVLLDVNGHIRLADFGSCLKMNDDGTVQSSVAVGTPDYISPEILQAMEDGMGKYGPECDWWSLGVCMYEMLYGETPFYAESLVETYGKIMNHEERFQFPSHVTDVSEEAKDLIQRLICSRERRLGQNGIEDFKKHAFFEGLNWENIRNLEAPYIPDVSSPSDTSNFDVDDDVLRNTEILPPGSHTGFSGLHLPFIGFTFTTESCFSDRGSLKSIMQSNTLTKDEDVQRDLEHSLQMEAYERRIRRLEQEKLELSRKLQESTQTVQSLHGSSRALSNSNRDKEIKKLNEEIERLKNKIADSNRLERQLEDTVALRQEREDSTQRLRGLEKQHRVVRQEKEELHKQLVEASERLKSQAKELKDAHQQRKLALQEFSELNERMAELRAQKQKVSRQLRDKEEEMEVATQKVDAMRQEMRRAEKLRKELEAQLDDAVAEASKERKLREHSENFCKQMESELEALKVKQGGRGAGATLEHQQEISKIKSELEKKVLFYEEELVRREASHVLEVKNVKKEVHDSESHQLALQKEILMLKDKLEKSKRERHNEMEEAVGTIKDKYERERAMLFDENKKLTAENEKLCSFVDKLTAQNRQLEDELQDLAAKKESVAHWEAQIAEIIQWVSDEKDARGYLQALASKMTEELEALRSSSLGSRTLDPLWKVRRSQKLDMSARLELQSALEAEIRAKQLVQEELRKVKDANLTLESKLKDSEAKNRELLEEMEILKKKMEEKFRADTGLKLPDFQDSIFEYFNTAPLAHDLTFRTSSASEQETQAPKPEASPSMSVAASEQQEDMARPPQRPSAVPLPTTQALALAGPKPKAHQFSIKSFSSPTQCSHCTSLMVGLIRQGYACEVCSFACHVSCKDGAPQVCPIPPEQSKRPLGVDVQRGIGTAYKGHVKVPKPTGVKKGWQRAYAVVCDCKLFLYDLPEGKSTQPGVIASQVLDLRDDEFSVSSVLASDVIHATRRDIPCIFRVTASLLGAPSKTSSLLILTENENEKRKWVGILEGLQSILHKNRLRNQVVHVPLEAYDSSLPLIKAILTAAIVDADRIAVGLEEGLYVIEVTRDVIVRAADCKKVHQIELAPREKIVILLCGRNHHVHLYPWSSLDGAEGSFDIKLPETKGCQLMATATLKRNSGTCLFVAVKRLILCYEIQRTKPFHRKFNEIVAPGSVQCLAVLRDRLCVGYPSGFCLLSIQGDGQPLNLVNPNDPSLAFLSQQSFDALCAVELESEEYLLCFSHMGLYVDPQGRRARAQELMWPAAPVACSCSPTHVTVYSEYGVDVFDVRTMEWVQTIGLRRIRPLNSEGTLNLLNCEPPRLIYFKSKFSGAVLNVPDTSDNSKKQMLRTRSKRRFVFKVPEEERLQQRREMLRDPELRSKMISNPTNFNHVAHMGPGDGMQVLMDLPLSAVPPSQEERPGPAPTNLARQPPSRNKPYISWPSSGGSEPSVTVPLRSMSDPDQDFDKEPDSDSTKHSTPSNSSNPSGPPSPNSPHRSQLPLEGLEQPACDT
T1 sequence (O00238 14-502): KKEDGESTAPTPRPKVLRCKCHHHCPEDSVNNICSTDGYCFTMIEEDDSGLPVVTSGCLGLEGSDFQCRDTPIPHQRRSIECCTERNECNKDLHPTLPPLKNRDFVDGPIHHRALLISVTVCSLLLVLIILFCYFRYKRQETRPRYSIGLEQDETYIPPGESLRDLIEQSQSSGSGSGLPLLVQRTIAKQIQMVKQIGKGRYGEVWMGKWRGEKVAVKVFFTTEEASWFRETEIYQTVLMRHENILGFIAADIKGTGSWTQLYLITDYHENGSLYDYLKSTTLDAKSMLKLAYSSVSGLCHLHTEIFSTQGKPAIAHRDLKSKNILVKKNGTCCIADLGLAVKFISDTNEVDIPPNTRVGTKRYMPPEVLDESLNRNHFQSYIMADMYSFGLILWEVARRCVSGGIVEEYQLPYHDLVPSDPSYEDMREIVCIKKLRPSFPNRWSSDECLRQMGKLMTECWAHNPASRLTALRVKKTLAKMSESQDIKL
Chain of NEK6 (Q9HC98 whole entry): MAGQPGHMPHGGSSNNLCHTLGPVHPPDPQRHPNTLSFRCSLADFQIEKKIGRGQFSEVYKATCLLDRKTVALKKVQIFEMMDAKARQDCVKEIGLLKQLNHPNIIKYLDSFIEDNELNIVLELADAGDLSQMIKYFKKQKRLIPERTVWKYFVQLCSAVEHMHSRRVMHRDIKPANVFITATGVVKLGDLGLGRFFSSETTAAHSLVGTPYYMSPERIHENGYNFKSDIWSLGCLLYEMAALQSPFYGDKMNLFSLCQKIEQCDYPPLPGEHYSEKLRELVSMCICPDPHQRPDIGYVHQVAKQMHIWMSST

Row | SMILES | remaining binding at 1 µM [1] | remaining binding at 1 µM [2] | remaining binding at 1 µM [3] | remaining binding at 1 µM [4] | remaining binding at 1 µM [5] | remaining binding at 1 µM [6] | remaining binding at 1 µM [7] | remaining binding at 1 µM [8] | remaining binding at 1 µM [9]
1 | CNc1c(-c2cnn([C@H]3CCN(C(C)=O)C[C@@H]3F)c2)cnc2[nH]cc(Cl)c12 [Compound 77, 1-((3S,4S)-4-(4-(3-chloro-4-(methylamino)-1H-pyrrolo[2,3-b]pyridin-5-yl)-1H-pyrazol-1-yl)-3-fluoropiperidin-1-yl)ethan-1-one] | 47% | 71% | 92% | 13% | 100% | 97% | 86% | 56% | 100%
2 | O=C(c1ccc(-c2cnc3[nH]cc(Cl)c3c2NC2CCCC2)cc1)N1CCC(N2CCOCC2)CC1 [Compound 101, (4-(3-chloro-4-(cyclopentylamino)-1H-pyrrolo[2,3-b]pyridin-5-yl)phenyl)(4-morpholinopiperidin-1-yl)methanone] | 95% | 80% | 100% | 100% | 88% | 100% | 82% | 92% | 94%
3 | CNc1c(-c2ccc(C(=O)N3CCC(N4CCOCC4)CC3)cc2)cnc2[nH]cc(Cl)c12 [Compound 96, (4-(3-chloro-4-(methylamino)-1H-pyrrolo[2,3-b]pyridin-5-yl)phenyl)(4-morpholinopiperidin-1-yl)methanone] | 54% | 72% | 88% | 5% | 94% | 96% | 93% | 22% | 95%
